Measured values as given in publication PMC7337048 (Journal of Structural Biology: X, 2019).
Values joined by “and” are separate entries in the source; they are usually repeats but may differ in a detail not shown here. Equal entries are not always repeated. Where two headings read alike, the source gives them in different places.

Experiments:
human Arginase-1 [1] = target: T1, human Arginase-1 (Homo sapiens, UniProt P05089); experiment: Arginase-1 colorimetric urea assay (inhibition); format: biochemical; details: for IC50: read-out: IC50 (nM) (95% CI); for Ki: Cheng-Prusoff equation, read-out: Ki (nM) (95% CI)
T1 sequence (P05089 1-322): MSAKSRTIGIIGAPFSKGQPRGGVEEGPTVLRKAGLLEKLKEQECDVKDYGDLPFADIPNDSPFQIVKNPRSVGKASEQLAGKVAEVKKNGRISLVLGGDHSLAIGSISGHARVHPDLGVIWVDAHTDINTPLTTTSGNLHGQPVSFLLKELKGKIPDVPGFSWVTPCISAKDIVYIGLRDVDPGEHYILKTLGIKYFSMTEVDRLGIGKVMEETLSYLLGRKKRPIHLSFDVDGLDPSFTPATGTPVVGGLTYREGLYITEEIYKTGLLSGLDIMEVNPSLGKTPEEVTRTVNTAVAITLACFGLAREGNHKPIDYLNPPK
Procedure: Arginase-1 activity was monitored by measurement of the rate of urea formation in a classic colorimetric assay ([Jung et al., 1975], [Zawada et al., 2009]). […] Compounds were either dissolved and diluted in DMSO, followed by further dilution in reaction buffer, or dissolved in MilliQ water (MQ) and diluted in reaction buffer to the desired concentrations. […] The enzymatic reaction was stopped by addition of 30 μL of the reagent A + B mixture. […] The reported values were measured in quadruplicate in four independent experiments. Dose-response curves were fitted with a four-parameter logistic regression using XLFit (IDBS, Guildford, UK) to determine IC50 values. Graphs for the manuscript were prepared using Prism (GraphPad Software, San Diego, CA).

human Arginase-1 [2] = target: T1, human Arginase-1; experiment: Thermal shift assay; format: binding; details: 50 μM inhibitor
Procedure: In a 96-well PCR plate (cat no. 652260; Greiner), 10 μL of the enzyme solution was mixed with 5 μL of 200 μM compound dissolved in MQ. […] The plate was sealed with Microseal B Adhesive Sealer (cat. no. MSB1001; Bio-Rad, Hercules, CA) and placed in a CFX96 Real-Time Detection System (Bio-Rad). The temperature was increased from 20 to 95 °C in increments of 0.5 °C during which the SYPRO Orange fluorescence was measured. The resulting datasets were first truncated to contain only the data points that lie between the minimal and maximal fluorescence signals. The remaining data were then fitted to the sigmoidal five-parameter equation (Eq. (2)) ([Schulz et al., 2013]), in which Fmin and Fmax are respectively the minimum and maximum fluorescent signals of the melting transition, T is the temperature, a is the hill slope and c is the asymmetric factor. The melting temperature was then determined as the point of inflection of the melting curve (Eq. […] The reported values were measured in quadruplicate in four independent experiments.(2) […]

human Arginase-1 [3] = target: T1, human Arginase-1; experiment: Surface plasmon resonance binding kinetics; details: for τ (target residence time): τ = 1/kd
Procedure: Binding kinetics of the inhibitors were determined by SPR using a Biacore T200 (GE Healthcare). […] The inhibitors were diluted in running buffer from a stock solution in MQ and were injected in an increasing concentration range of 0.1, 0.316, 1, 3.16 and 10 µM. […] The compound response was subtracted with both the reference channel response and the blank injection.

human Arginase-1 [4] = target: T1, human Arginase-1; details: Enzyme assay at pH 7.4; racemic ABH assumed; ref Golebiowski et al., 2013, Van Zandt et al., 2013, Golebiowski et al., 2013, Van Zandt et al., 2019; cited from earlier work
Human Arginase-2 = details: cited from earlier work; for IC50: Enzyme assay at pH 7.4
human Arginase-1 [5] = target: T1, human Arginase-1; experiment: Apparent Michaelis-Menten parameters, colorimetric urea assay; format: biochemical; details: substrate; for Km: read-out: Michaelis constant (KM)
Procedure: Arginase-1 activity was monitored by measurement of the rate of urea formation in a classic colorimetric assay ([Jung et al., 1975], [Zawada et al., 2009]). All components of the assay were diluted in Arginase reaction buffer 1 (8 mM Na2HPO4, 2 mM KH2PO4, pH 7.4, 137 mM NaCl, 2.7 mM KCl, and 0.05% Tween-20) or Arginase reaction buffer 2 (10 mM glycine, pH 9.5, 137 mM NaCl, 2.7 mM KCl, and 0.05% Tween-20). Compounds were either dissolved and diluted in DMSO, followed by further dilution in reaction buffer, or dissolved in MilliQ water (MQ) and diluted in reaction buffer to the desired concentrations. In a clear 384-well plate (cat. no. 781101; Greiner), 10 µL diluted compound and 10 µL of 3 nM (pH 9.5) or 15 nM (pH 7.4) Arginase-1 were combined and incubated for 90 min at room temperature. Then, 10 µL of 15 mM (pH 9.5) or 7.5 mM (pH 7.4) L-arginine (cat. no. 105000250; Acros Organics) was added to the plate, followed by incubation for 30 min. A 1:1 mixture of reagent A (10 mM o-phthaldialdehyde, 0.4% polyoxyethylene (23) lauryl ether (w/v) and 1.8 M sulfuric acid) and reagent B (1.3 mM primaquine diphosphate, 0.4% polyoxyethylene (23) lauryl ether (w/v), 130 mM boric acid and 3.6 M sulfuric acid) was prepared. The enzymatic reaction was stopped by addition of 30 μL of the reagent A + B mixture. After incubation with the reagent mixture for 60 min (pH 9.5) or 120 min (pH 7.4), the absorbance was measured at 450 nm using the EnVision 2104 Multilabel Plate Reader (PerkinElmer, Waltham, MA) (excitation filter P450). The final concentrations of Arginase-1 and L-arginine in the assay were respectively 1 nM and 5 mM at pH 9.5, and 5 nM and 2.5 mM at pH 7.4.

Arginase-1 = test system: Arginase-1; design: method as in Stone et al., 2010, Alarcón et al., 2006, Tsui et al., 2009; details: differences in pH and temperature; ref Stone et al., 2010, Alarcón et al., 2006, Tsui et al., 2009; cited from earlier work
[6] = Enzyme assay at pH 7.5, ref Colleluori and Ash, 2001

Question: Which IC50 (human Arginase-1 [1]; pH 7.4, 5 nM Arginase-1, 2.5 mM L-arginine) does the source give for `N[C@@H](CCCCB(O)O)C(=O)O` [ABH, (2S)-2-amino-6-boronohexanoic acid] here?
Answer: The IC50 was 184 nM.

Question: What about the Ki (human Arginase-1 [1]; pH 7.4) of the same compound?
Answer: The Ki was 88 nM.

Question: What about the “decrease in the Ki on increase of the pH from 7.4 to 9.5” value (human Arginase-1 [1]; pH 7.4 versus pH 9.5) of the same compound?
Answer: Its value is 8 fold.

Question: What about the IC50 (human Arginase-1 [1]; pH 9.5, 1 nM Arginase-1, 5 mM L-arginine) of the same compound?
Answer: The IC50 was 22 nM.

Question: And the Ki (human Arginase-1 [1]; pH 9.5)?
Answer: Its Ki is 11 nM.

Question: And the Tm (human Arginase-1 [2]; pH 7.4)?
Answer: Its Tm is 77.4 °C.

Question: What about the ΔTm at 50 µM (human Arginase-1 [2]; pH 7.4) of the same compound?
Answer: The ΔTm at 50 µM was 4.5 °C.

Question: And the Tm (human Arginase-1 [2]; pH 9.5)?
Answer: The Tm was 80.9 °C.

Question: What about the ΔTm at 50 µM (human Arginase-1 [2]; pH 9.5) of the same compound?
Answer: The ΔTm at 50 µM was 3.5 °C.

Question: And the Kd (human Arginase-1 [3]; pH 7.4)?
Answer: The Kd was 797 nM.

Question: And the ka (human Arginase-1 [3]; pH 7.4)?
Answer: The ka was 12000 M⁻¹ s⁻¹.

Question: And the kd (human Arginase-1 [3]; pH 7.4)?
Answer: Its kd is 0.0099 s⁻¹.

Question: What about the “log(ka)” value (human Arginase-1 [3]; pH 7.4) of the same compound?
Answer: The value was 4.09.

Question: And the “log(kd)” value (human Arginase-1 [3]; pH 7.4)?
Answer: The value was −2.00.

Question: And the “τ (target residence time)” value (human Arginase-1 [3]; pH 7.4)?
Answer: Its value is 100 s.

Question: What about the Kd (human Arginase-1 [3]; pH 9.5) of the same compound?
Answer: Its Kd is 27 nM.

Question: And the ka (human Arginase-1 [3]; pH 9.5)?
Answer: The ka was 5100 M⁻¹ s⁻¹.

Question: What about the kd (human Arginase-1 [3]; pH 9.5) of the same compound?
Answer: Its kd is 0.00014 s⁻¹.

Question: And the “log(ka)” value (human Arginase-1 [3]; pH 9.5)?
Answer: The value was 3.71.

Question: And the “log(kd)” value (human Arginase-1 [3]; pH 9.5)?
Answer: The value was −3.86.

Question: What about the “τ (target residence time)” value (human Arginase-1 [3]; pH 9.5) of the same compound?
Answer: Its value is 7200 s.

Question: And the IC50 (human Arginase-1 [4])?
Answer: Its IC50 is 1450 to 1550 nM.

Question: What about the IC50 (Human Arginase-2; racemic ABH assumed, ref Golebiowski et al., 2013, Van Zandt et al., 2013, Golebiowski et al., 2013, Van Zandt et al., 2019) of the same compound?
Answer: Its IC50 is 1920 to 2550 nM.

Question: What about the Ki (Human Arginase-2; [6]) of the same compound?
Answer: The Ki was 250 nM.

Question: And the Ki (Human Arginase-2; Enzyme assay at pH 9.5, ref Colleluori and Ash, 2001)?
Answer: The Ki was 8.5 nM.

Question: What about the “potency lower at pH 7.5 compared to pH 9.5” value (Human Arginase-2; pH 7.5 versus pH 9.5, ref Colleluori and Ash, 2001) of the same compound?
Answer: The value was ~30 times.

Question: With `C[C@H](N)C(=O)N1C[C@H](CCCB(O)O)[C@](N)(C(=O)O)C1` [CB-1158, (3R,4S)-3-amino-1-[(2S)-2-aminopropanoyl]-4-(3-boronopropyl)pyrrolidine-3-carboxylic acid] as the compound, how does the IC50 (Human Arginase-2; ref Oberlies et al., 2009) read?
Answer: The IC50 was 296 nM.

Question: What does the source list for `N=C(N)NCCC[C@H](N)C(=O)O` [L-arginine]?
Answer: catalytic rate constant (kcat) (human Arginase-1 [5]; pH 7.4): 57 s⁻¹; Km (human Arginase-1 [5]; pH 7.4): 2300 µM; catalytic rate constant (kcat) (human Arginase-1 [5]; pH 9.5): 460 s⁻¹; Km (human Arginase-1 [5]; pH 9.5): 4900 µM; Km (Arginase-1): 1900 µM and 2300 µM and 1500 µM; kcat (Arginase-1): 300 s⁻¹ and 190 s⁻¹

Question: For `N=C(NO)NCC[C@H](N)C(=O)O` [nor-NOHA, N^ω-hydroxy-nor-L-arginine], which ΔTm at 50 µM (human Arginase-1 [2]; pH 7.4) is on record?
Answer: The ΔTm at 50 µM was 4.8 °C.

Question: What about the ΔTm at 50 µM (human Arginase-1 [2]; pH 9.5) of the same compound?
Answer: Its ΔTm at 50 µM is 4.7 °C.

Question: And the IC50 (Human Arginase-2; ref Van Zandt et al., 2019)?
Answer: Its IC50 is 1260 nM.

Question: And the Ki (Human Arginase-2; [6])?
Answer: Its Ki is 51 nM.
